Results reported in patent publication US20210198201A1, “Orally Active Melanocortin Receptor-4 Compounds” (Palatin Technologies, Inc., priority 2018, published 2021).

Columns and labels:
MC4r [1] = target: T1, MC4r (Homo sapiens, UniProt P32245); experiment: cAMP functional study in human MC4r expression system approximating maximal physiologic receptor densities; format: cell-based; parameters: host or cells: TREx-293; conditions: low receptor density human MC4r system
Method: Assay for Agonist Activity. Accumulation of intracellular cAMP was examined as a measure of the ability of the peptides of the present invention to elicit a functional response in HEK-293 cells that express MC4-R. Confluent HEK-293 cells that express recombinant hMC4-R were detached from culture plates by incubation in enzyme-free cell dissociation buffer. Dispersed cells were suspended in Hanks' Balanced Salt Solution containing 10 mM HEPES (pH 7.5), 1 mM MgCl2, 1 mM glutamine, 0.5% albumin and 0.3 mM 3-isobutyl-1-methyl-xanthine (IBMX), a phosphodiesterase inhibitor. The cells were plated in 96-well plates at a density of 0.5×10^5 cells per well and pre-incubated for 10 minutes. Cells were exposed for 15 minutes at 37° C. to peptides of the present invention dissolved in DMSO (final DMSO concentration of 1%) at a concentration range of 0.05-5000 nM in a total assay volume of 200 μL. NDP-α-MSH was used as the reference agonist. cAMP levels were determined by an HTRF® cAMP cell-based assay system from Cisbio Bioassays utilizing cryptate-labeled anti-cAMP and d2-labeled cAMP, with plates read on a Perkin-Elmer Victor plate reader at […]. Data analysis was performed by nonlinear regression analysis with Graph-Pad Prism® software. The maximum efficacies of the test peptides of the present invention were compared to that achieved by the reference melanocortin agonist NDP-αMSH.
Low Receptor Density Systems. In functional studies preferably a human MC4r expression system approximating maximal human physiologic receptor densities is employed. In one aspect, a tetracycline-regulated mammalian expression system that uses regulatory elements from the E. coli Tn10-encoded tetracycline (Tet) resistance operon was employed (T-REx™ System, Invitrogen). By use of the T-REx™ System, expression of the gene of interest, the human MC4-R gene, was repressed in the absence of tetracycline or doxycycline and induced in the presence of tetracycline or doxycycline, with receptor density being dependent on the concentration of tetracycline or doxycycline. See generally Yao F. et al: Tetracycline repressor, tetR, rather than the tetR-mammalian cell transcription factor fusion derivatives, regulates inducible gene expression in mammalian cells. Hum. Gene Ther. 9:1939-1950 (1998), incorporated here by reference. Regulation was based on the binding of tetracycline or doxycycline, a derivative of tetracycline, to the Tet repressor and derepression of the promoter controlling expression of the human MC4-R gene. In general tetracycline or related regulators, such as tetracycline-derivatives, may be used to induce the gene expression. An inducible expression plasmid for expression of human MC4-R gene under the control of the strong human cytomegalovirus immediate-early (CMV) promoter and two tetracycline operator 2 (TetO2) sites was employed, together with a regulatory plasmid, pcDNA6/TR, which encodes the Tet repressor (TetR) under the control of the human SV40 promoter. Thus, expression of the human MC4-R gene from the inducible expression vector was controlled by the strong CMV promoter into which 2 copies of the tet operator 2 (TetO2) sequence had been inserted in tandem. The TetO2 sequences consisted of 2 copies of 19-nucleotide sequence separated by a 2 base pair spacer. Each 19 nucleotide TetO2 sequence served as the binding site for 2 molecules of the Tet repressor. The expression vector pcDNA4/TO/MC4R was introduced into TREx-293 (Invitrogen, R710-07), a cell line stably expressing the tetracycline repressor pcDNA6/TR using lipofectamin 2000 reagent (Invitrogen, 11668-019). Alternatively, both the expression vector and repressor are introduced into host cells by standard transformation or transfection methods.

MC4r [2] = target: T1, MC4r; experiment: Binding of iodine-125 labeled NDP-α-MSH, human recombinant CHO cells, hMC4r; parameters: expressed in transfected cells; host or cells: CHO
Method: (§1) Melanocortin receptor binding and function of Compound 7.1 was tested. Ki binding values (nM) were calculated utilizing the percent inhibit of the binding of iodine-125 labeled NDP-α-MSH against B16-F1 cells for mMC1r, and human recombinant CHO cells for hMC3r, hMC4r and hMC5r, with the inhibition constant calculated using the Cheng Prusoff equation. Functional results (EC50 and efficacy) were calculated utilizing cAMP assays with NDP-α-MSH for mMC1r, hMC3r and hMC4r, ACTH for hMC2r, and α-MSH for hMC5r for agonist measures, with the same target cells for melanocortin receptors mMC1r, hMC3r, hMC4r and hMC5r, and human recombinant Cloudman M3 cells for hMC2r.

[3] = Plasma concentrations following oral administration in Sprague-Dawley rats; format: in vivo, rat; conditions: oral 30 mg/kg
Method: Plasma samples were measured at 15 minutes (2 animals) and 30 minutes, 1 hour, 2 hours, 4 hours, 8 hours and 24 hours (3 animals) post oral administration.

hMC3r = target: T2, hMC3r (Homo sapiens, UniProt P41968); experiment: cAMP assay hMC3r (human recombinant CHO cells, NDP-α-MSH reference); format: cell-based
T2 construct: expressed in transfected cells; host or cells: CHO
T2 sequence (P41968 whole entry): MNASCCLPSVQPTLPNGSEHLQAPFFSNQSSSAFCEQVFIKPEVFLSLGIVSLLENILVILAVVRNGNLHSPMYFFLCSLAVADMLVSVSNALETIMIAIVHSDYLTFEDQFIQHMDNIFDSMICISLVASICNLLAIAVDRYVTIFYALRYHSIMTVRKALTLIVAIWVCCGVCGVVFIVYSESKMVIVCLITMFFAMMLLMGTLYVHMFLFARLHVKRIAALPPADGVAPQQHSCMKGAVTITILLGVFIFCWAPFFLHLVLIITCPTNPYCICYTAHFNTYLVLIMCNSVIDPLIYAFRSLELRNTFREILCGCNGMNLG
Method: as §1

hMC2r = target: T3, hMC2r (Homo sapiens, UniProt Q01718); experiment: cAMP assay hMC2r (human recombinant Cloudman M3 cells, ACTH reference); format: cell-based
T3 construct: expressed in transfected cells; host or cells: Cloudman M3
T3 sequence (Q01718 whole entry): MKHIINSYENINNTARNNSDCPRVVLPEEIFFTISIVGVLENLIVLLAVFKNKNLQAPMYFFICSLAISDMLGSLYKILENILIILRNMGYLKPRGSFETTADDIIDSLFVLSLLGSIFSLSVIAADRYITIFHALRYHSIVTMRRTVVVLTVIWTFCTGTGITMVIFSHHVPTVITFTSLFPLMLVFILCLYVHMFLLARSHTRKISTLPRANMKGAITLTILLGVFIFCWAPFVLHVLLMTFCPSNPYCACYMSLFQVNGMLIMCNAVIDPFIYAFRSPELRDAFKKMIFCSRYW
T3 sequence (Q9D159 whole entry partner): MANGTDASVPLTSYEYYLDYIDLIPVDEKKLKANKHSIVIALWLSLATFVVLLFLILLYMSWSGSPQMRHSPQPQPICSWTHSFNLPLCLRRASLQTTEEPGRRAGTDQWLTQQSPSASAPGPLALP
Method: as §1

mMC1r [4] = target: T4, mMC1r (Mus musculus, UniProt Q01727); experiment: Binding of iodine-125 labeled NDP-α-MSH, B16-F1 cells, mMC1r
T4 construct: endogenous in cells; host or cells: B16-F1
T4 sequence (Q01727 whole entry): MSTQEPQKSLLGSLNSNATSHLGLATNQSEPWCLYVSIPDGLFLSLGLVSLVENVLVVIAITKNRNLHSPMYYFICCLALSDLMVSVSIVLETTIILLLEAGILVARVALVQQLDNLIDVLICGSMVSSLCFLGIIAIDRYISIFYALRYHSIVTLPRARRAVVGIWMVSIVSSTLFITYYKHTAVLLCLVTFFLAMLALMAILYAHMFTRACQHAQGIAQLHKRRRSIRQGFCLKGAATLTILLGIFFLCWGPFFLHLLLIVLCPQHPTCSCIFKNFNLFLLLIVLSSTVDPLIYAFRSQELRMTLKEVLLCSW
Method: as §1

mMC1r [5] = target: T4, mMC1r; experiment: cAMP assay mMC1r (B16-F1 cells, NDP-α-MSH reference); format: cell-based
Method: as §1

MC4r [6] = target: T1, MC4r; experiment: cAMP assay hMC4r (human recombinant CHO cells, NDP-α-MSH reference); format: cell-based; parameters: expressed in transfected cells; host or cells: CHO
Method: as §1

hMC5r = target: T5, hMC5r (Homo sapiens, UniProt P33032); experiment: Binding of iodine-125 labeled NDP-α-MSH, human recombinant CHO cells, hMC5r
T5 construct: expressed in transfected cells; host or cells: CHO
T5 sequence (P33032 whole entry): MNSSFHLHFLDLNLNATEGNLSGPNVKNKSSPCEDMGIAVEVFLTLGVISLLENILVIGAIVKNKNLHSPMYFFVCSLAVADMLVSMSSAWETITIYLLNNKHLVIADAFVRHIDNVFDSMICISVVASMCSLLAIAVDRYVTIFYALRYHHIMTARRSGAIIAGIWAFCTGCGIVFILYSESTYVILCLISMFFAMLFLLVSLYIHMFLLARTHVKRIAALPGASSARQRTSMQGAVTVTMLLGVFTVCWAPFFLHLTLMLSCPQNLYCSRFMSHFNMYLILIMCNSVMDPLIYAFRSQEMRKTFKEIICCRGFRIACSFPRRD
Method: as §1

MC4r (−/−) mice = experiment: Oral administration in MC4r knockout mice, feed intake and body weight; format: in vivo, mouse
Method: Feed intake and body weight was evaluated in MCr4 knockout (MC4r−/−) mice (Jackson Laboratories) compared to C57Bl/6 DIO mice. […] Feed weights were taken at time 0, 2, 6 and 24 hours post lights out. […] The change in body weight is shown in FIG. 4 starting on study day 5, the first day of administration of compound 7.1. […] Additionally, there was a statistically significant mean difference, 2.8%, 95% Cl (1.281, 4.253), and p value <0.0001 between DIO mice receiving compound 7.1 and MC4r (−/−) receiving compound 7.1.

T1 sequence (P32245 whole entry): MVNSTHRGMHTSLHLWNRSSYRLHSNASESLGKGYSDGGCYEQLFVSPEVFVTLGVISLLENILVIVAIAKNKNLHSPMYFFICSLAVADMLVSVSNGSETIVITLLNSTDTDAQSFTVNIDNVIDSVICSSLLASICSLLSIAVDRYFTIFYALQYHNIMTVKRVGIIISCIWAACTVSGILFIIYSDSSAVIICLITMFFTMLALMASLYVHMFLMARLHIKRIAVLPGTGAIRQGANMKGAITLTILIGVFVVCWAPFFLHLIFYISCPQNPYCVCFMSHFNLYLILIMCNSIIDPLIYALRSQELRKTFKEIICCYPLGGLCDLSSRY

In the case of CC(=O)N1CCC(N(CC(C)C)N2CCN(C(=O)[C@@H](Cc3ccc(Cl)cc3)NC(=O)C(C)(C)N)CC2)CC1 [Compound 7.1, N-[(1R)-2-[4-[(1-acetyl-4-piperidyl)-isobutyl-amino]piperazin-1-yl]-1-[(4-chlorophenyl)methyl]-2-oxo-ethyl]-2-amino-2-methyl-propanamide], the EC50 (MC4r [1]) is reported as 23 nM, the Emax (MC4r [1]; read-out: relative efficacy, compared to NDP-α-MSH) is reported as 33% and the Ki (MC4r [2]) is reported as 14 nM. The Tax [3] was 2 h, the Cmax ([3]; rat, plasma) was 780 ng/mL and the half-life ([3]; rat, plasma, read-out: terminal half-life (converted)) was 3.94 h. For the same molecule, the EC50 (hMC3r) was > 1000 nM, the EC50 (hMC2r) was > 1000 nM and the Ki (mMC1r [4]) was 93 nM. For the same molecule, the EC50 (mMC1r [5]) was 460 nM, the EC50 (MC4r [6]) was 6 nM and the Ki (hMC5r) was 1200 nM. The “notable mean percentage body weight change difference between treated group and vehicle (in words)” value (MC4r (−/−) mice; 30 mg/kg twice daily) was “not” and the “food consumption vs vehicle only (in words)” value (MC4r (−/−) mice; 30 mg/kg twice daily oral gavage) was “no differences”.
